# Experimental data as given in patent US8980954B2, “Substituted cis- and trans-stilbenes as therapeutic agents” (STC.UNM, priority 2006, dated 2015).
# Experiments:
# AP-1 = experiment: Inhibition of the TPA-induced activation of AP-1, 293T/AP-1-luc luciferase reporter cell assay; type: cell-based, human; details: 293T/AP-1-luc cells, TPA 10 ng/ml, 24 hours; for IC50: Homo sapiens
# Protocol: An AP-1 reporter stable cell line derived from human 293T embryonic kidney cells transfected with a luciferase reporter construct containing three AP-1 binding sites in the promoter (293T/AP-1-luc, Panomics, Inc., Redwood City, Calif.) was grown in a humidified atmosphere at 37° C. in 5% CO2/95% air. The cells were maintained in Dulbecco's Modified Eagle's Medium (DMEM—high glucose containing 4 mM glutamine) supplemented with 10% fetal bovine serum (FBS), 1 mM sodium pyruvate, 100 units/ml penicillin, 100 μg/ml streptomycin and 100 μg/ml hygromycin (Gibco/Invitrogen, Carlsbad, Calif.) to maintain cell selection. One day prior to treatment, the 293T/AP-1-luc cells were plated into 24-well cell culture plates (Costar, Cambridge, Ma.) in the above media without hygromycin. The following day, the cells, which were at approximately 60% confluency, were fed fresh media with or without TPA, 10 ng/ml, (Calbiochem) and immediately treated with curcumin or analog prepared in DMSO stock solutions. The cells were placed again in a humidified atmosphere at 37° C. in 5% CO2/95% air for 24 hours. Plate wells were gently washed with phosphate buffered saline, pH 7.4, and lysed with 1x passive lysis buffer (Promega, Madison, Wis.). The subsequent lysates were analyzed with the Luciferase Assay System (Promega) utilizing a TD-20/20 luminometer (Turner Designs, Sunnyvale, Calif.). The firefly luciferase relative light units were normalized to protein (mg/ml) with BCA™ Protein Assay Kit (Pierce, Rockford, Ill.) and standardized to percent of control (TPA control).
# NF-κB [1] = experiment: Inhibition of the TNFα-induced activation of NF-κB, 293T/NF-κB-luc luciferase reporter cell assay; type: cell-based, human; details: 7 hours; for IC50: Homo sapiens, HEK-293T, 293T/NF-κB-luc cells, TNFα 20 ng/ml, triplicate, read-out: IC50 for inhibition of the TNFα-induced activation of NFκB; for activity as inhibitor of the TNFα-induced activation of NF-κB in the preliminary screen: screened at 15 μM, FIGS. 1-5
# Protocol: The cells were maintained in Dulbecco's Modified Eagle's Medium (DMEM—high glucose containing 4 mM glutamine) supplemented with 10% fetal bovine serum (FBS), 1 mM sodium pyruvate, 100 units/ml penicillin, 100 μg/ml streptomycin and 100 μg/ml hygromycin (Gibco/Invitrogen, Carlsbad, Calif.) to maintain cell selection. […] The following day cells were fed fresh media 1 hour prior to treatment. […] Plate wells were gently washed with phosphate buffered saline, pH 7.4, and lysed with 1x passive lysis buffer (Promega, Madison, Wis.). The subsequent lysates were analyzed with the Luciferase Assay System (Promega) utilizing a TD-20/20 luminometer (Turner Designs, Sunnyvale, Calif.). The firefly luciferase relative light units were normalized to protein (mg/ml) with BCA™ Protein Assay Kit (Pierce, Rockford, Ill.) and standardized to percent of control (TNFα control).
# NF-κB [2] = details: cited from earlier work
# COX-2 mRNA = experiment: Inhibition of LPS-induced expression of COX-2 mRNA in BV-2 microglial cells (qRT-PCR); type: cell-based, mouse; details: BV-2 cells, LPS 0.2 μg/ml, 24 hours; for inhibition of LPS-induced COX-2 mRNA compared with resveratrol: 0.15 μM
# [3] = TRAP assay (total radical-trapping anti-oxidant parameter)
# Description: (§1) The total radical-trapping anti-oxidant parameter assay (TRAP assay) measures the ability of an analog to react with the pre-formed radical monocation of 2,2′-azinobis-(3-ethylbenzothiazoline-6-sulfonic acid) (ABTS-^+). The ferric reducing/anti-oxidant power assay (FRAP assay) measures the ability of an analog to reduce a ferric tripyridyltriazine complex.
# (§2) In both colorimetric assays, the vitamin E analog Trolox was used as a control.
# (§3) The anti-oxidant activities of certain stilbene analogs according to the present invention were determined using two standard assays. See, Schlesier, et al., Free Rad Res. 2002;36:177-187. The total radical-trapping anti-oxidant parameter assay (TRAP assay) measures the ability of an analog to react with the pre-formed radical monocation of 2,2′-azinobis-(3-ethylbenzothiazoline-6-sulfonic acid) (ABTS^+). See, Re, et al., Free Rad Biol Med, 26:1231-1237 (1999). ABTS was reacted with potassium persulfate in the dark, overnight, to generate the colored ABTS^+ radical cation, which has an absorption maximum at 734 nm. The activities of curcumin and analogs were determined by their abilities to quench the color of the radical cation. The ferric reducing/anti-oxidant power assay (FRAP assay) measures the ability of an analog to reduce a ferric tripyridyltriazine complex. See, Benzie and Strain, Meth Enzymol, 299:15-27 (1999). The ferric complex of 2,4,6-tripyridyl-s-triazine was prepared at acidic pH, and the anti-oxidant activities of curcumin and analogs were determined by their abilities to reduce the ferric complex to the ferrous complex, monitored by formation of the ferrous complex at 593 nm. In both colorimetric assays, the vitamin E analog Trolox was used as a control.
# [4] = FRAP assay (ferric reducing/anti-oxidant power)
# Description: as §1, §2
# as §3, with “ABTS was reacted with potassium persulfate in the dark, overnight, to generate the colored ABTS^+ radical cation, which has an absorption maximum at 734 nm.” left out, “The ferric reducing/anti-oxidant power assay (FRAP assay) measures the ability of an analog to reduce a ferric tripyridyltriazine complex. See, Benzie and Strain, Meth Enzymol, 299:15-27 (1999).” left out, “In both colorimetric assays, the vitamin E analog Trolox was used as a control.” left out
Compound,IC50 (AP-1) [nM],IC50 (NF-κB [1]) [nM],activity as inhibitor of the TNFα-induced activation of NF-κB in the preliminary screen (NF-κB [1]),further results
"COc1ccc(/C=C/c2cccc(C)c2)cc1 [6i, (E)-4′-Methoxy-3-methylstilbene]",1000 ± 120,800 ± 200,–,–
"COc1ccc(/C=C/c2cccc(OC)c2OC)cc1 [6o, (E)-2,3,4′-Trimethoxystilbene]",2400 ± 700,–,especially active,–
"COc1ccc(/C=C/c2ccc(OC)cc2)cc1 [6b, (E)-4,4′-Dimethoxystilbene]",–,–,retained very little activity,–
"Oc1ccc(/C=C/c2cc(O)cc(O)c2)cc1 [resveratrol, 3,4′,5-trihydroxystilbene, reference compound]",–,20000 ± 3000,–,inhibition of TNF-induced activation of NF-κB (literature) (NF-κB [2]): inhibits TNF-induced activation of NF-κB; effect on TPA-induced AP-1 activation (AP-1): activated; inhibition of LPS-induced COX-2 mRNA (COX-2 mRNA; 4 μM): about 50%; suppression of LPS-induced COX-2 mRNA (COX-2 mRNA; 20 μM): markedly suppressed
"COc1ccc(/C=C/c2cccc(F)c2)cc1 [6n, (E)-3-Fluoro-4′-methoxystilbene]",500 ± 100,–,–,–
"CCOc1ccc(/C=C/c2ccccc2)cc1 [4k, (E)-4-Ethoxystilbene]",800 ± 100,–,–,–
"COc1ccc(/C=C/c2ccccc2)cc1 [4b, (E)-4-Methoxystilbene]",1300 ± 30,–,especially active,–
C(=Cc1ccccc1)c1ccccc1 [stilbene],–,–,–,inhibition of TNF-induced activation of NF-κB (literature) (NF-κB [2]): inactive
"COc1ccc(/C=C/c2cccc(Cl)c2)cc1 [6h, (E)-3-Chloro-4′-methoxystilbene]",800 ± 150,1000 ± 100,–,–
"COc1ccc(/C=C/c2ccccc2)cc1O [4s, (E)-3-Hydroxy-4-methoxystilbene]",–,–,considerably more active than resveratrol,–
"COc1ccc(/C=C/c2cccc(OC)c2)cc1 [6r, (E)-3,4′-Dimethoxystilbene]",700 ± 40,600 ± 100,especially active,–
"COc1cccc(/C=C/c2ccccc2)c1OC [4o, (E)-2,3-Dimethoxystilbene]",–,–,retained very little activity,–
"COc1ccc(/C=C/c2ccccc2F)cc1 [6p, (E)-2-Fluoro-4′-methoxystilbene]",800 ± 100,150,–,"anti-oxidant activity (TRAP or FRAP assay, not told apart) [3]: does not exhibit anti-oxidant activity; inhibition of LPS-induced COX-2 mRNA compared with resveratrol (COX-2 mRNA): almost as effective as 4 μM resveratrol"
"Cc1ccc(/C=C/c2ccccc2)cc1 [4d, (E)-4-Methylstilbene]",1600 ± 600,–,–,–
"COc1ccc(/C=C/c2cccc(O)c2O)cc1 [6cc, (E)-2,3-Dihydroxy-4′-methoxystilbene]",–,–,considerably more active than resveratrol,–
"COc1ccc(/C=C/c2ccccc2)c(OC)c1 [4u, (E)-2,4-Dimethoxystilbene]",–,–,especially active,–
"COc1ccc(/C=C/c2ccc(O)c(O)c2)cc1 [6x, (E)-3,4-Dihydroxy-4′-methoxystilbene]",–,600 ± 400,considerably more active than resveratrol,–
"COc1ccc(/C=C/c2cc(OC)cc(OC)c2)cc1 [6f, (E)-3,4′,5-Trimethoxystilbene]",3800 ± 1100,–,especially active,–
COc1ccc(/C=C/c2ccccn2)cc1,2100 ± 400,–,–,–
"COc1ccc(/C=C/c2ccccc2Cl)cc1 [6j, (E)-2-Chloro-4′-methoxystilbene]",–,1500 ± 30,–,–
"CN(C)c1ccc(/C=C/c2ccccc2)cc1 [4cc, (E)-4-N,N-Dimethylaminostilbene]",1100 ± 100,150,–,"anti-oxidant activity in the FRAP assay [4]: exhibits anti-oxidant activity; anti-oxidant activity in the TRAP assay [3]: exhibits anti-oxidant activity; anti-oxidant activity (TRAP or FRAP assay, not told apart) [3]: retained anti-oxidant activity; inhibition of LPS-induced COX-2 mRNA compared with resveratrol (COX-2 mRNA): almost as effective as 4 μM resveratrol"
"COc1ccc(/C=C/c2ccc(C)cc2)cc1 [6d, (E)-4′-Methoxy-4-methylstilbene]",800 ± 30,900 ± 100,–,–
